Results reported in paper PMC9841532, “Exploring the Effect of Halogenation in a Series of Potent and Selective A2B Adenosine Receptor Antagonists” (Journal of Medicinal Chemistry, 2022).
Where two headings read alike, the source gives them in different places.

Columns and labels:
[1] = target: T1, hA1AR (Homo sapiens, UniProt P30542); assay: Radioligand binding competition, [3H]DPCPX, membranes from CHO-A1 cells; conditions: 1 μM, [3H]DPCPX, human CHO cells, n = 2
T1 sequence (P30542 1-326): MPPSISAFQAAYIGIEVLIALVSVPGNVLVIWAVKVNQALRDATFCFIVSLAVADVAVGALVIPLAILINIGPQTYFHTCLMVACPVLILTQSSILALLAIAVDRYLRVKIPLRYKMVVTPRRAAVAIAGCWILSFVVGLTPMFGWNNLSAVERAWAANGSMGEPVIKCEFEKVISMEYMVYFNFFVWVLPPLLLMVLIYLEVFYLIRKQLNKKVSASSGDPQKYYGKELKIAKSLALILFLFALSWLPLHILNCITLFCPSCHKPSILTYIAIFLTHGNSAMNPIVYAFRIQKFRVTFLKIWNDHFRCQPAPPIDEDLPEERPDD
How it was run: (§1)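 Racemates, plus selected enantiomers after chiral resolution, were tested at 25 °C, with a 60 min incubation for one subtype and 30 min for others. Non-specific binding was defined with 10 μM or 100 μM R-PIA. Bound radioactivity was counted after washing and filtration.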

[2] = target: T2, hA2AAR (Homo sapiens, UniProt P29274); assay: Radioligand binding competition, [3H]ZM241385, membranes from HeLa-A2A cells; conditions: 1 μM, [3H]ZM241385, human HeLa cells, n = 2
T2 construct: expressed in transfected cells; host or cells: HeLa (HeLa-A2A) cell membranes
T2 sequence (P29274 whole entry): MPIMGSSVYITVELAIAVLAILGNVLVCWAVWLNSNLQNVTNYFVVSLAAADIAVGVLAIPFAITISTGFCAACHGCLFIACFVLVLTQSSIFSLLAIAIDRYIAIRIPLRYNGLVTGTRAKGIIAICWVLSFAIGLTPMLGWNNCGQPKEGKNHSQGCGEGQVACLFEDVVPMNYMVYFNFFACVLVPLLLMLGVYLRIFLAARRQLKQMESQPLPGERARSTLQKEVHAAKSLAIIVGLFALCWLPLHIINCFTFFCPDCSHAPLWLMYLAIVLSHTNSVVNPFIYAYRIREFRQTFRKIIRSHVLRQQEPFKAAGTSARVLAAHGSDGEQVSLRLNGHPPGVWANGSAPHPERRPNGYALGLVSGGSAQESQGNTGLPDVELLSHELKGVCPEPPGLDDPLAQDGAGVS
How it was run: as §1

[3] = target: T3, hA2BAR (Homo sapiens, UniProt P29275); assay: Radioligand binding competition, [3H]DPCPX, membranes from HEK-293-A2B cells; conditions: read-out: Ki hA2B
T3 construct: host or cells: HEK-293 (HEK-293-A2B) cell membranes
T3 sequence (P29275 1-332): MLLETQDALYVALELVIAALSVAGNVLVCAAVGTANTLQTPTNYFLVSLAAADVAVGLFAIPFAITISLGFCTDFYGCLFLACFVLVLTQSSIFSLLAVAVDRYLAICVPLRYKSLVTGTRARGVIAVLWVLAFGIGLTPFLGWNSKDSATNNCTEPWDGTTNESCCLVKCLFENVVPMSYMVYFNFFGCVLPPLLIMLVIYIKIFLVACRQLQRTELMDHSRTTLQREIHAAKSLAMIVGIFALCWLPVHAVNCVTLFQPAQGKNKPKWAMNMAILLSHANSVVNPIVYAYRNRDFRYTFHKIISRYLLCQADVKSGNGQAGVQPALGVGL
How it was run: as §1

[4] = target: T4, hA3AR (Homo sapiens, UniProt P0DMS8); assay: Radioligand binding competition, [3H]NECA, membranes from HeLa-A3 cells; conditions: 1 μM, [3H]NECA, human HeLa cells, n = 2
T4 construct: expressed in transfected cells; host or cells: HeLa (HeLa-A3) cell membranes
T4 sequence (P0DMS8 1-318): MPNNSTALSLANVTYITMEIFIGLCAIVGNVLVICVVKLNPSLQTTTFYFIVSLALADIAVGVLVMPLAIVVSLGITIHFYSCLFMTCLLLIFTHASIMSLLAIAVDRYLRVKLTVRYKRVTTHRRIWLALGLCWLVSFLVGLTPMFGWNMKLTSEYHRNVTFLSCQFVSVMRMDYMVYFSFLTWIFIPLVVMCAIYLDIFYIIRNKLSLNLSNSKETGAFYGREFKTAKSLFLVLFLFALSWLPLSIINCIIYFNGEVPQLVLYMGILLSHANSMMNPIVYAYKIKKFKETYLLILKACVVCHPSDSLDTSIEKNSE
How it was run: as §1

[5] = target: T5, A2BAR (Homo sapiens, UniProt P29275); assay: cAMP accumulation assay in HEK-293 cells permanently expressing A2BAR-SNAP; format: cell-based; conditions: read-out: KB (hA2B)
T5 construct: expressed in transfected cells; host or cells: HEK-293 T cells permanently expressing pRK5-A2BAR^SNAP
T5 sequence (P29275 1-332): T3 sequence (P29275 1-332)
Procedure: To assess their ability to block A2BAR agonist intrinsic activity, the effect on A2BAR-mediated cAMP accumulation and cellular impedance was evaluated. To this end, we used HEK-293 cells permanently expressing the A2BAR^SNAP construct, which can be visualized upon staining the cells with a SNAP-fluorescent substrate.
Scale bar: […]. […] Data are expressed as mean ± SEM (n = 4).
cAMP accumulation was measured using the LANCE Ultra cAMP kit (PerkinElmer, Waltham, Massachusetts, USA) as previously described.[55] […] The 384-well plate was incubated 1 h at 22 °C in the dark and was then read on a CLARIOstar Microplate Reader (BMG Labtech, Durham, North Carolina, USA). […] Data were fitted by non-linear regression using GraphPad Prism 9 (San Diego, California, USA).

[6] = target: T5, A2BAR; assay: Cellular impedance label-free assay (xCELLigence) in A2BAR-SNAP cells; format: cell-based; conditions: compound 1 μM, NECA 1 μM, 45 min, n = 4
Text: To further evaluate the ability of 16b, 16j, 16r, and 16s to preclude A2BAR function in living cells, we took advantage of the cellular impedance label-free method, a widely accepted morphological and functional biosensor of cell status.[39] Accordingly, whole-cell NECA-mediated impedance responses of A2BAR^SNAP cells were monitored in real time in the absence or presence of 16b, 16j, 16r, and 16s.
Figure 4 Blockade of A2BAR-mediated whole-cell label-free responses. (A) Representative example of the impedance signal obtained over the time upon incubation with A2BAR ligands. […] (B) The area under the curve (AUC) derived from the normalized cell index (NCI) shown in (A) was calculated for each condition. Data are expressed as mean ± SEM (n = 4). ***P < 0.001 and **P < 0.01, one-way ANOVA with a Dunnett’s multiple-comparison test when compared to vehicle (Veh).
The xCELLigence RTCA system (Roche) was employed to assess the impact of blocking A2BAR-mediated effects in cellular impedance upon receptor activation, as previously described.[57]−[60] To this end, A2BAR^SNAP cells were growth in 16-well E-plates (Roche), using DMEM supplemented with 1 mM sodium pyruvate, 2 mM L-glutamine, 100 U/mL streptomycin, […] penicillin, and 1.5% (v/v) fetal bovine serum in the presence of 0.5 U/mL of ADA. Of note, wells were previously coated with 50 μL fibronectin (10 μg/mL; Sigma-Aldrich) and the background index for each well was determined with supplemented DMEM (90 μL) in the absence of cells. Subsequently, A2BAR^SNAP cells (90 μL) were plated at a cell density of 10,000 cells/well and grown for 18 h in the RTCA SP device station (Roche) at 37 °C in an atmosphere of 5% CO2. Then, before ligand addition, cell index values were normalized to the same time point using the RTCA software, providing the normalized cell index (NCI). After ligand stimulation, NCI was recorded every 15 s for a total time of at least 45 min. The area under the curve (AUC) for every condition was calculated using GraphPad Prism 9.

% at 1 μM hA1 (percentage displacement of specific binding) [1]: 1% | % at 1 μM hA2A (percentage displacement of specific binding) [2]: 37% | Ki ([3]; displacement of specific [3H]DPCPX binding in human HEK-293 cells, n = 3): 3.32 ± 0.4 nM | Ki [3]: < 10 nM | % at 1 μM hA3 (percentage displacement of specific binding) [4]: 25% | Kb [5]: 1.5 ± 0.5 nM | Blockade of NECA-induced changes in cellular impedance (AUC of normalized cell index) [6]: significantly blocked
Structure (SMILES): CCOC(=O)C1=C(C)Nc2nc3cc(Br)ccc3n2C1c1ccoc1 (stereo not shown) [16s]
